Assays:
[1] = tested on: Leberegel (Fasciola hepatica); experiment: Chemotherapeutic test in sheep infected with liver fluke (egg count reduction / worm burden); type: in vivo; conditions: Tabelle 1, Wirtstier: Schaf, p.o.; for minimal effective dose: Fasciola hepatica, po, minimum curative dose, read-out: Dosis (>90% Reduktion der Wurmbürde); for Chemotherapeut. Index: quotient of Dosis tolerata maxima and Dosis curativa minima
Excerpt: (§1) Zur Feststellung der anthelminthischen Wirkung der Verbindungen der Formel I wurden chemotherapeutische Untersuchungen an ca. 25-30 kg schweren Schaflämmern ausgeführt, die entweder mit Metazerkarien von Fasciola hepatica oder mit Larven von Magen-Darm-Strongyliden, vornehmlich Haemonchus contortus und Trichostongylus colubriformis, oral infiziert worden waren. Nach Ablauf der Präpatenzperiode (Zeit zwischen Infektion und Geschlechtsreife der Parasiten mit beginnender Ausscheidung von Eiern oder Larven) wurde der Parasitenbefall durch Kotuntersuchungen gesichert. […] Unmittelbar danach wurde die Behandlung der Schafe (im allgemeinen 3 - 4 Tiere pro Wirkstoff, mindestens aber 2) vorgenommen. Den Tieren wurde oral oder parenteral eine Suspension von unterschiedlicher Wirkstoffmenge in jeweils 10 ml einer 1%igen Carboxymethylcellulose-Suspension appliziert. Jeweils am 7., 14. und 28. Tag nach der Behandlung wurde wiederum nach den vorstehend angegebenen Verfahren die Eizahl pro Gramm Kot ermittelt und ihre prozentuale Abnahme im Vergleich zum Ausgangswert vor der Behandlung errechnet. Mit einigen Verbindungen wurden außerdem beim Fasciola-Befall noch eine zusätzliche Prüftechnik angewandt: Nach Abschluß der Präpatenzperiode wurde bei Fasciola-positiven Schafen ein künstlicher Gallengang geschaffen, der am Ausgang der Gallenblase ein Sieb enthielt, so daß die nach der Behandlung abgetöteten Leberegel in der Gallenblase aufgefangen werden konnten. Vier bis sieben Tage nach der Behandlung wurden die so operierten und dann behandelten Schafe getötet, die abgetöteten Leberegel in der Gallenblase sowie noch eventuell in der Leber vorhandene lebende Leberegel gezählt und von der gesamten Wurmbürde der Prozentsatz der abgetöteten Parasiten berechnet.
(§2) Der chemotherapeutische Index gibt den Quotienten aus Do- sis tolerata maxima und Dosis curativa minima an.

[2] = tested on: Magen-Darm-Würmer(Ostertagia, Haemonchur, Trichostrongylus, Cooperia, jeweils verschiedene Spezies); experiment: Chemotherapeutic test in sheep infected with gastrointestinal worms (egg count reduction / worm burden); type: in vivo; conditions: Tabelle 2, Wirtstier: Schaf; for Chemotherapeut. Index / minimal effective dose: p.o.; for Chemotherapeut. Index: quotient of Dosis tolerata maxima and Dosis curativa minima; for minimal effective dose: Trichostrongylus, po, read-out: Dosis (>90% Reduktion der Wurmbürde)
Excerpt: as §1, §2

Row | Structure (SMILES) | minimal effective dose [1] [mg/kg] | Chemotherapeut. Index [1] | Dosis (>90% Reduktion der Wurmbürde) ([2]; result in words, route not printed (oral bzw. subkutan)) | Chemotherapeut. Index [2] | minimal effective dose [2] [mg/kg]
1 | O=[N+]([O-])c1cc(Cl)cc(-c2cc(Cl)cc([N+](=O)[O-])c2O)c1O [Niclofolan, 5,5'-Dichlor-2-2'-dihydroxy-3,3'-dinitro-biphenyl, reference compound] | 3 | 3 | keine Wirkung | – | –
2 | O=C(Nc1ccc(Oc2ccc(Cl)cc2)c(Cl)c1)c1cc(I)cc(I)c1O [Rafoxanide, 3'-Chlor-4'-(p-chlor-phenoxy)-3,5-dijod-salicylanilid, reference compound] | 7.5 | 6 | – | 6 | 7.5
3 | O=C(Nc1ccc(Cl)cc1)c1cc(Cl)cc(Cl)c1NS(=O)(=O)c1ccc(Cl)cc1 [Verbindung 13, 3,5-Dichlor-2-[(4-chlor-phenylsulfonyl)-amino]-benzoesäure-(4-chlor-anilid)] | 5 | 10 | – | 5 | 10
4 | O=C(Nc1ccc(Cl)cc1)c1cc(Cl)ccc1NS(=O)(=O)c1ccc(Br)cc1 [Verbindung 20, 5-Chlor-2-[(4-brom-phenylsulfonyl)-amino]-benzoesäure-(4-chlor-anilid)] | 2.5 | 20 | – | 5 | 10
5 | O=C(Nc1ccc(OC(F)(F)F)cc1)c1cc(Cl)ccc1NS(=O)(=O)c1ccc(Cl)c(Cl)c1 [Verbindung 35, 5-Chlor-2-[(3,4-dichlorphenylsulfonyl)-amino]-benzoesäure-(4-trifluormethoxy-anilid)] | 2.5 | 20 | – | 5 | 10
6 | O=C(Nc1ccc(Cl)cc1)c1cc([N+](=O)[O-])ccc1NS(=O)(=O)c1ccc(Cl)c(Cl)c1 [Verbindung 38, 2-[(3,4-Dichlor-phenylsulfönyl)-amino]-5-nitrobenzoesäure-(4-chlor-anilid)] | – | – | – | 6 | 7.5
7 | CCN(C(=O)c1cc(Cl)ccc1N(C)S(=O)(=O)c1ccc(Cl)c(Cl)c1)c1ccc(Cl)cc1 [Verbindung 42] | 2.5 | 20 | – | 10 | 5
